Data as given in US20250179066A1, “ZWITTERIONIC ANTIBACTERIAL COMPOUNDS” (Hoffmann-La Roche Inc., priority 2022, published 2025).

The compounds below were run on Acinetobacter baumannii ATCC17961 (assay: Antimicrobial susceptibility testing: 90% growth inhibitory concentration (IC90) determination). Conditions: 90% growth inhibitory concentration against Acinetobacter baumannii ATCC17961, Iso-Sensitest broth, OD 600 nm over 16 h; read-out: ATCC 17961 IC90.
Format: cell-based
Outline: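 Twofold serial dilutions (e.g. 10 to 0.0195 μM final) in Iso-Sensitest broth inoculated at ~5×10^5 CFU/mL, incubated at 35±2° C. OD600 read every minute for 16 h; IC90 is the concentration inhibiting 90% of growth during logarithmic phase.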

SMILES	IC90
Cn1c(-c2cn(-c3ccc(N)cc3F)nc2C(F)(F)F)cnc1C(=O)Nc1ccc(C(=O)N2CCN(C(=O)CCC[N+](CCCN)(CCCN)CCCC(=O)O)CC2)c(Cl)c1 [Example 182, [4-[4-[4-[[5-[1-(4-amino-2-fluoro-phenyl)-3-(trifluoromethyl)pyrazol-4-yl]-1-methyl-imidazole-2-carbonyl]amino]-2-chloro-benzoyl]piperazin-1-yl]-4-oxo-butyl]-bis(3-aminopropyl)-(3-carboxypropyl)ammonium; 2,2,2-trifluoroacetate]	201 nM

Same assay, conditions: Acinetobacter baumannii, ATCC17961, 16 h, 90% growth inhibitory concentration against Acinetobacter baumannii ATCC17961, Iso-Sensitest broth, OD 600 nm over 16 h; read-out: ATCC 17961 IC90

SMILES	IC90
Cn1c(-c2cn(-c3cc4[nH]c(C(=O)N5C[C@H]6CNC[C@H]6C5)cc4cn3)nc2C(F)(F)F)cnc1C(=O)Nc1ccc(C(=O)N2CCN(C(=O)[C@H]3CC[N@+](CC(=O)O)(CC4CNC4)CC3)CC2)c(Cl)c1 [Example 112, cis-2-[4-[4-[4-[[5-[1-[2-[(3aS,6aR)-2,3,3a,4,6,6a-hexahydro-1H-pyrrolo[3,4-c]pyrrole-5-carbonyl]-1H-pyrrolo[3,2-c]pyridin-6-yl]-3-(trifluoromethyl)pyrazol-4-yl]-1-methyl-imidazole-2-carbonyl]amino]-2-chloro-benzoyl]piperazine-1-carbonyl]-1-(azetidin-3-ylmethyl)piperidin-1-ium-1-yl]acetic acid. 1:1 2,2,2-trifluoroacetate]	356 nM
Cn1c(-c2cn(-c3ccc(N)cc3F)nc2C(F)(F)F)cnc1C(=O)Nc1ccc(C(=O)N2CCN(C(=O)N3CC[N+](CC(=O)O)(CC4CNC4)CC3)CC2)c(Cl)c1 [Example 140, 2-[4-[4-[4-[[5-[1-(4-amino-2-fluoro-phenyl)-3-(trifluoromethyl)pyrazol-4-yl]-1-methyl-imidazole-2-carbonyl]amino]-2-chloro-benzoyl]piperazine-1-carbonyl]-1-(azetidin-3-ylmethyl)piperazin-1-ium-1-yl]acetic acid. 1:1 2,2,2-trifluoroacetate]	334 nM
Cn1c(-c2cn(-c3ccc4[nH]cnc4n3)nc2C(F)(F)F)cnc1C(=O)Nc1ccc(C(=O)N2CCN(C(=O)[C@H]3CC[N@+](CC(=O)O)(CC4CNC4)CC3)CC2)c(Cl)c1 [Example 55, cis-2-[1-(azetidin-3-ylmethyl)-4-[4-[2-chloro-4-[[5-[1-(1H-imidazo[4,5-b]pyridin-5-yl)-3-(trifluoromethyl)pyrazol-4-yl]-1-methyl-imidazole-2-carbonyl]amino]benzoyl]piperazine-1-carbonyl]piperidin-1-ium-1-yl]acetic acid. 1:1 2,2,2-trifluoroacetate]	550 nM
CNc1ccnc(-n2cc(-c3cnc(C(=O)Nc4ccc(C(=O)N5CCN(C(=O)C6CC[N+](CC(=O)O)(CC7CNC7)CC6)CC5)c(Cl)c4)n3C)c(C(F)(F)F)n2)c1 (stereo not shown) [Example 52, 2-[1-(azetidin-3-ylmethyl)-4-[4-[2-chloro-4-[[1-methyl-5-[1-[4-(methylamino)-2-pyridyl]-3-(trifluoromethyl)pyrazol-4-yl]imidazole-2-carbonyl]amino]benzoyl]piperazine-1-carbonyl]piperidin-1-ium-1-yl]acetic acid. 1:1 2,2,2-trifluoroacetate]	530 nM
Cn1c(-c2cn(-c3ccc(N)cc3F)nc2C(F)(F)F)cnc1C(=O)Nc1ccc(C(=O)N2CCN(C(=O)CCC[N+](C)(CC(=O)[O-])CC3CNC3)CC2)c(Cl)c1 (stereo not shown) [Example 195, 2-[[4-[4-[4-[[5-[1-(4-amino-2-fluoro-phenyl)-3-(trifluoromethyl)pyrazol-4-yl]-1-methyl-imidazole-2-carbonyl]amino]-2-chloro-benzoyl]piperazin-1-yl]-4-oxo-butyl]-(azetidin-3-ylmethyl)-methyl-ammonio]acetate]	330 nM
COCCNc1ccc(-n2cc(-c3cnc(C(=O)Nc4ccc(C(=O)N5CCN(C(=O)[C@H]6CC[N@+](CC(=O)O)(CC7CNC7)CC6)CC5)c(Cl)c4)n3C)c(C(F)(F)F)n2)c(F)c1 [Example 185, cis-2-[1-(azetidin-3-ylmethyl)-4-[4-[2-chloro-4-[[5-[1-[2-fluoro-4-(2-methoxyethylamino)phenyl]-3-(trifluoromethyl)pyrazol-4-yl]-1-methyl-imidazole-2-carbonyl]amino]benzoyl]piperazine-1-carbonyl]piperidin-1-ium-1-yl]acetic acid. 1:1 2,2,2-trifluoroacetate]	196 nM
Cn1c(-c2cn(-c3ccc(N)cn3)nc2C(F)(F)F)cnc1C(=O)Nc1ccc(C(=O)N2CCN(C(=O)[C@H]3CC[N@+](CC(=O)O)(CC4CNC4)CC3)CC2)c(Cl)c1 [Example 34, cis-2-[4-[4-[4-[[5-[1-(5-amino-2-pyridyl)-3-(trifluoromethyl)pyrazol-4-yl]-1-methyl-imidazole-2-carbonyl]amino]-2-chloro-benzoyl]piperazine-1-carbonyl]-1-(azetidin-3-ylmethyl)piperidin-1-ium-1-yl]acetic acid. 1:1 2,2,2-trifluoroacetic acid. 1:1 2,2,2-trifluoroacetate]	400 nM
Cn1c(-c2cn(-c3cc4[nH]c(CN)cc4cn3)nc2C(F)(F)F)cnc1C(=O)Nc1ccc(C(=O)N2CCN(C(=O)[C@H]3CC[N@+](CC(=O)O)(CC4CNC4)CC3)CC2)c(Cl)c1 [Example 189, cis-2-[4-[4-[4-[[5-[1-[2-(aminomethyl)-1H-pyrrolo[3,2-c]pyridin-6-yl]-3-(trifluoromethyl)pyrazol-4-yl]-1-methyl-imidazole-2-carbonyl]amino]-2-chloro-benzoyl]piperazine-1-carbonyl]-1-(azetidin-3-ylmethyl)piperidin-1-ium-1-yl]acetic acid;formic acid;formate]	53.2 nM
Cn1c(-c2cn(-c3ncc(N)cc3F)nc2C(F)(F)F)cnc1C(=O)Nc1ccc(C(=O)N2CCN(C(=O)[C@H]3CC[N@+](CC(=O)O)(CC4CNC4)CC3)CC2)c(Cl)c1 [Example 58, cis-2-[4-[4-[4-[[5-[1-(5-Amino-3-fluoro-2-pyridyl)-3-(trifluoromethyl)pyrazol-4-yl]-1-methyl-imidazole-2-carbonyl]amino]-2-chloro-benzoyl]piperazine-1-carbonyl]-1-(azetidin-3-ylmethyl)piperidin-1-ium-1-yl]acetic Acid.1:1 2,2,2-trifluoroacetate]	630 nM
CN(C)CC[N@+]1(CC(=O)O)CC[C@H](C(=O)N2CCN(C(=O)c3ccc(NC(=O)c4ncc(-c5cn(-c6ccc(N)cc6F)nc5C(F)(F)F)n4C)cc3Cl)CC2)CC1 [Example 187, trans-2-[4-[4-[4-[[5-[1-(4-amino-2-fluoro-phenyl)-3-(trifluoromethyl)pyrazol-4-yl]-1-methyl-imidazole-2-carbonyl]amino]-2-chloro-benzoyl]piperazine-1-carbonyl]-1-[2-(dimethylamino)ethyl]piperidin-1-ium-1-yl]acetic acid;2,2,2-trifluoroacetate]	745 nM
Cn1c(-c2cn(-c3ccc(N)cn3)nc2C(F)(F)F)cnc1C(=O)Nc1ccc(C(=O)N2CCC(C(=O)N3CC[N+](CC(=O)O)(CC4CNC4)CC3)CC2)c(Cl)c1 [Example 87, 2-[4-[1-[4-[[5-[1-(5-amino-2-pyridyl)-3-(trifluoromethyl)pyrazol-4-yl]-1-methyl-imidazole-2-carbonyl]amino]-2-chloro-benzoyl]piperidine-4-carbonyl]-1-(azetidin-3-ylmethyl)piperazin-1-ium-1-yl]acetic acid. 1:1 2,2,2-trifluoroacetate]	1410 nM
Cn1c(-c2cn(-c3ccnc(N)c3)nc2C(F)(F)F)cnc1C(=O)Nc1ccc(C(=O)N2CCN(C(=O)C3CC[N+](CC(=O)O)(CC4CNC4)CC3)CC2)c(Cl)c1 (stereo not shown) [Example 74, 2-[4-[4-[4-[[5-[1-(2-amino-4-pyridyl)-3-(trifluoromethyl)pyrazol-4-yl]-1-methyl-imidazole-2-carbonyl]amino]-2-chloro-benzoyl]piperazine-1-carbonyl]-1-(azetidin-3-ylmethyl)piperidin-1-ium-1-yl]acetic acid. 1:1 2,2,2-trifluoroacetate]	940 nM
Cn1c(-c2cn(-c3ccc(CCN)cn3)nc2C(F)(F)F)cnc1C(=O)Nc1ccc(C(=O)N2CCN(C(=O)C3CC[N+](CC(=O)O)(CC4CNC4)CC3)CC2)c(Cl)c1 (stereo not shown) [Example 1, 2-[4-[4-[4-[[5-[1-[5-(2-Aminoethyl)-2-pyridyl]-3-(trifluoromethyl)pyrazol-4-yl]-1-methyl-imidazole-2-carbonyl]amino]-2-chloro-benzoyl]piperazine-1-carbonyl]-1-(azetidin-3-ylmethyl)piperidin-1-ium-1-yl]acetic Acid.1:1 2,2,2-trifluoroacetic Acid.1:1 2,2,2-trifluoroacetate]	330 nM
Cn1c(-c2cn(-c3ccc(N)cn3)nc2C(F)(F)F)cnc1C(=O)Nc1ccc(C(=O)N2CCN(C(=O)[C@H]3CC[N@+](CCCN)(CC(=O)O)CC3)CC2)c(Cl)c1 [Example 48, trans-2-[1-(3-aminopropyl)-4-[4-[4-[[5-[1-(5-amino-2-pyridyl)-3-(trifluoromethyl)pyrazol-4-yl]-1-methyl-imidazole-2-carbonyl]amino]-2-chloro-benzoyl]piperazine-1-carbonyl]piperidin-1-ium-1-yl]acetic acid. 1:1 2,2,2-trifluoroacetate]	510 nM
Cn1c(-c2cn(-c3cc4[nH]cc(C(=O)N5CCOCC5)c4cn3)nc2C(F)(F)F)cnc1C(=O)Nc1ccc(C(=O)N2CCN(C(=O)[C@H]3CC[N@+](CC(=O)O)(CC4CNC4)CC3)CC2)c(Cl)c1 [Example 177, cis-2-[1-(azetidin-3-ylmethyl)-4-[4-[2-chloro-4-[[1-methyl-5-[1-[3-(morpholine-4-carbonyl)-1H-pyrrolo[3,2-c]pyridin-6-yl]-3-(trifluoromethyl)pyrazol-4-yl]imidazole-2-carbonyl]amino]benzoyl]piperazine-1-carbonyl]piperidin-1-ium-1-yl]acetic acid. 1:1 2,2,2-trifluoroacetate]	201 nM
